Experimental data from patent publication US20240131028A1, “CHEMOVACCINATION AGAINST PLASMODIUM INFECTION WITH SELECTIVE PLASMEPSIN X INHIBITORS” (Merck Sharp & Dohme LLC, priority 2021, published 2024).
Where two headings read alike, the source gives them in different places.

Test system: ring stage parasites (Pf)
Experiment: Parasite lactate dehydrogenase (LDH) growth assay (Parasite Assay, PfLDH Assay)
Type: cell-based, P. falciparum
Conditions: 72 hours growth, LDH readout
Description: The parasite stock was maintained at 4% haematocrit in RPMI-Hepes media buffered with sodium bicarbonate and supplemented with 5% heat inactivated human serum and 0.5% albumax. […] On the day of assay set up, a blood smear of the parasite culture was Giemsa stained and counted. The parasitemia was adjusted to 0.7% rings and the haematocrit was diluted to 2% in RPMI-Hepes media buffered with sodium bicarbonate and supplemented with 5% heat inactivated human serum and 0.5% albumax. 30 μl of diluted parasites are then added into 10 μl of media+compound in pre-prepared Greiner TC assay plates. Parasite assay plates were placed in gassed humidified boxes in single layer and allowed to incubate at 37° C. for 72 hours. After 72 hours growth, assay plates were sealed with parafilm and frozen flat, in single file at −80° C. overnight. On the following day, assay plates were allowed to thaw at room temperature for 4 hours to which an LDH assay was performed to measure parasite growth.

[1] = Table 4, read-out: EC50 (Table 4)
[2] = Plasmodium falciparum, 72 h, Table 3, read-out: EC50

## CC[C@]1(C)CC(=O)N(C(c2cncc(F)c2)[C@H]2C[C@@H]2C(=O)N[C@@H]2c3ccccc3OC(C)(C)C2(C)O)C(=N)N1 (single isomer, unassigned) [Example 103B]
Table 3, read-out: EC50
  EC50: 2.1 nM

## CC[C@]1(C)CC(=O)N(C(c2cncc(F)c2)[C@H]2C[C@@H]2C(=O)NC2c3ccccc3OC(C(F)(F)F)C2O)C(=N)N1 (single isomer, unassigned) [Example 104A]
Table 3, read-out: EC50
  EC50: 4 nM

## CC[C@]1(C)CC(=O)N(C(c2cncc(F)c2)[C@H]2C[C@@H]2C(=O)NC2c3ccccc3OC(C(F)(F)F)C2O)C(=N)N1 (single isomer, unassigned) [Example 104B]
Table 3, read-out: EC50
  EC50: 22 nM

## CCC1(C)CC(NC(=O)[C@H]2C[C@@H]2[C@@H](c2cccnc2)N2C(=N)NC(C)(C)CC2=O)c2ccccc2O1 (single isomer, unassigned) [Example 105A]
Table 3, read-out: EC50
  EC50: 0.9 nM

## CCC1(C)CC(NC(=O)[C@H]2C[C@@H]2[C@@H](c2cccnc2)N2C(=N)NC(C)(C)CC2=O)c2ccccc2O1 (single isomer, unassigned) [Example 105B]
Table 3, read-out: EC50
  EC50: 1.8 nM

## CCC1(C)CC(NC(=O)[C@H]2C[C@@H]2[C@@H](c2cccnc2)N2C(=N)NC(C)(C)CC2=O)c2ccccc2O1 (single isomer, unassigned) [Example 105C]
Table 3, read-out: EC50
  EC50: 0.8 nM

## CCC1(C)CC(NC(=O)[C@H]2C[C@@H]2[C@@H](c2cccnc2)N2C(=N)NC(C)(C)CC2=O)c2ccccc2O1 (single isomer, unassigned) [Example 105D]
Table 3, read-out: EC50
  EC50: 0.9 nM

## COCC1(C)CC(NC(=O)[C@H]2C[C@@H]2[C@@H](c2cccnc2)N2C(=N)NC(C)(C)CC2=O)c2ccccc2O1 (single isomer, unassigned) [Example 108A]
Table 3, read-out: EC50
  EC50: 70 nM

## COCC1(C)CC(NC(=O)[C@H]2C[C@@H]2[C@@H](c2cccnc2)N2C(=N)NC(C)(C)CC2=O)c2ccccc2O1 (single isomer, unassigned) [Example 108B]
Table 3, read-out: EC50
  EC50: 3.7 nM

## COCC1(C)CC(NC(=O)[C@H]2C[C@@H]2[C@@H](c2cccnc2)N2C(=N)NC(C)(C)CC2=O)c2ccccc2O1 (single isomer, unassigned) [Example 108C]
Table 3, read-out: EC50
  EC50: 6 nM

## COCC1(C)CC(NC(=O)[C@H]2C[C@@H]2[C@@H](c2cccnc2)N2C(=N)NC(C)(C)CC2=O)c2ccccc2O1 (single isomer, unassigned) [Example 108D]
Table 3, read-out: EC50
  EC50: 8.5 nM

## CC1(C)CC(=O)N([C@H](c2cccnc2)[C@H]2C[C@@H]2C(=O)NC2CC(C)(C)Oc3ccc(C(F)(F)F)cc32)C(=N)N1 (single isomer, unassigned) [Example 109A]
Table 3, read-out: EC50
  EC50: 2.3 nM

## CC1(C)CC(=O)N([C@H](c2cccnc2)[C@H]2C[C@@H]2C(=O)NC2CC(C)(C)Oc3ccc(C(F)(F)F)cc32)C(=N)N1 (single isomer, unassigned) [Example 109B]
Table 3, read-out: EC50
  EC50: 1 nM

## CC[C@]1(C)CC(=O)N([C@H](CCOC)[C@H]2C[C@@H]2C(=O)NC2CC(C)(C)Oc3ccc(C(F)(F)F)cc32)C(=N)N1 (single isomer, unassigned) [Example 127A]
Table 3, read-out: EC50
  EC50: 1.1 nM

## CC[C@]1(C)CC(=O)N([C@H](CCOC)[C@H]2C[C@@H]2C(=O)NC2CC(C)(C)Oc3ccc(C(F)(F)F)cc32)C(=N)N1 (single isomer, unassigned) [Example 127B]
Table 3, read-out: EC50
  EC50: 2.6 nM

## CC[C@]1(C)CC(=O)N([C@H](CCOC)[C@H]2C[C@@H]2C(=O)NC2CC(C)(C)Oc3ccc(F)cc32)C(=N)N1 (single isomer, unassigned) [Example 130A]
Table 3, read-out: EC50
  EC50: 0.9 nM

## CC[C@]1(C)CC(=O)N([C@H](CCOC)[C@H]2C[C@@H]2C(=O)NC2CC(C)(C)Oc3ccc(F)cc32)C(=N)N1 (single isomer, unassigned) [Example 130B]
Table 3, read-out: EC50
  EC50: 2.4 nM

## CCC1C[C@H](NC(=O)[C@H]2C[C@@H]2CN2C(=N)NC(C)(C)CC2=O)c2ccccc2O1 (single isomer, unassigned) [Example 133A]
Table 3, read-out: EC50
  EC50: 210 nM

## CCC1C[C@H](NC(=O)[C@H]2C[C@@H]2CN2C(=N)NC(C)(C)CC2=O)c2ccccc2O1 (single isomer, unassigned) [Example 133B]
Table 3, read-out: EC50
  EC50: 100 nM

## COCC[C@H]([C@H]1C[C@@H]1C(=O)NC1CC(C)(C)Oc2cc(OC(F)(F)F)ccc21)N1C(=N)NC(C)(C)CC1=O (single isomer, unassigned) [Example 134A]
Table 3, read-out: EC50
  EC50: 71 nM

## COCC[C@H]([C@H]1C[C@@H]1C(=O)NC1CC(C)(C)Oc2cc(OC(F)(F)F)ccc21)N1C(=N)NC(C)(C)CC1=O (single isomer, unassigned) [Example 134B]
Table 3, read-out: EC50
  EC50: 25 nM

## CCC1(CC)CC(=O)N(C(CC(C)OC)[C@H]2C[C@@H]2C(=O)N[C@H]2CC(C)(C)Oc3ccccc32)C(=N)N1 (single isomer, unassigned) [Example 142A]
[1]
  EC50: 1.9 nM

## CCC1(CC)CC(=O)N(C(CC(C)OC)[C@H]2C[C@@H]2C(=O)N[C@H]2CC(C)(C)Oc3ccccc32)C(=N)N1 (single isomer, unassigned) [Example 142B]
[1]
  EC50: 0.7 nM

## CCC1(CC)CC(=O)N(C(CC(C)OC)[C@H]2C[C@@H]2C(=O)N[C@H]2CC(C)(C)Oc3ccccc32)C(=N)N1 (single isomer, unassigned) [Example 142C]
[1]
  EC50: 205 nM

## CCC1(CC)CC(=O)N(C(CC(C)OC)[C@H]2C[C@@H]2C(=O)N[C@H]2CC(C)(C)Oc3ccccc32)C(=N)N1 (single isomer, unassigned) [Example 142D]
[1]
  EC50: 115 nM

## CCC1(CC)CC(=O)N(C(CC(C)OC)[C@H]2C[C@@H]2C(=O)N[C@@H]2CC(C)(C)Oc3ccccc32)C(=N)N1 (single isomer, unassigned) [Example 143A]
[1]
  EC50: 4.6 nM

## CCC1(CC)CC(=O)N(C(CC(C)OC)[C@H]2C[C@@H]2C(=O)N[C@@H]2CC(C)(C)Oc3ccccc32)C(=N)N1 (single isomer, unassigned) [Example 143B]
[1]
  EC50: 2.4 nM

## CCC1(CC)CC(=O)N(C(CC(C)OC)[C@H]2C[C@@H]2C(=O)N[C@@H]2CC(C)(C)Oc3ccccc32)C(=N)N1 (single isomer, unassigned) [Example 143C]
[1]
  EC50: 57.9 nM

## CCC1(CC)CC(=O)N([C@H](CCOC)[C@H]2C[C@@H]2C(=O)NC2CC(C)(C)Oc3cc(Cl)ccc32)C(=N)N1 (single isomer, unassigned) [Example 147A]
[1]
  EC50: 2.8 nM

## CCC1(CC)CC(=O)N([C@H](CCOC)[C@H]2C[C@@H]2C(=O)NC2CC(C)(C)Oc3cc(Cl)ccc32)C(=N)N1 (single isomer, unassigned) [Example 147B]
[1]
  EC50: 8.2 nM

## CCC1(CC)CC(=O)N([C@H](CCOC)[C@H]2C[C@@H]2C(=O)N[C@H]2CC(C)(C)Oc3ccccc32)C(=N)N1 [Example 1A]
[2]
  EC50: 1 nM

## CCC1(CC)CC(=O)N([C@H](CCOC)[C@H]2C[C@@H]2C(=O)N[C@@H]2CC(C)(C)Oc3ccccc32)C(=N)N1 [Example 1B]
[2]
  EC50: 250 nM

## CCC1(CC)CC(=O)N(C[C@H]2C[C@@H]2C(=O)N[C@H](C)c2ccccc2)C(=N)N1 [Example 3B]
[2]
  EC50: 151 nM

## CCC1(CC)CC(=O)N(C[C@H]2C[C@@H]2C(=O)N[C@@H]2CCOc3ccccc32)C(=N)N1 [Example 4B]
[2]
  EC50: 26 nM

## CCC1(CC)CC(=O)N(C[C@H]2C[C@@H]2C(=O)N[C@H]2CC(C)(C)Oc3ccccc32)C(=N)N1 [Example 5]
[2]
  EC50: 49 nM

## CCC1(CC)CC(=O)N(C[C@H]2C[C@@H]2C(=O)N[C@H]2c3ccccc3C[C@@H]2O)C(=N)N1 [Example 6A]
[2]
  EC50: 188 nM

## CCC1(CC)CC(=O)N(C[C@H]2C[C@@H]2C(=O)N[C@H]2c3ccccc3C[C@@H]2O)C(=N)N1 [Example 6B]
Table 3, read-out: EC50
  EC50: 269 nM

## CCC1(CC)CC(=O)N(C[C@H]2C[C@@H]2C(=O)N[C@H]2CC(C)(C)Oc3ccc(F)cc32)C(=N)N1 [Example 7A]
[2]
  EC50: 135 nM

## CCC1(CC)CC(=O)N(C[C@H]2C[C@@H]2C(=O)N[C@@H]2CC(C)(C)Oc3ccc(F)cc32)C(=N)N1 [Example 7B]
[2]
  EC50: 29 nM

## CCC1(CC)CC(=O)N(C[C@H]2C[C@@H]2C(=O)N[C@H]2C[C@@H](C(F)(F)F)Oc3ccccc32)C(=N)N1 [Example 8A]
[2]
  EC50: 37 nM

## CCC1(CC)CC(=O)N(C[C@H]2C[C@@H]2C(=O)N[C@@H]2C[C@@H](C(F)(F)F)Oc3ccccc32)C(=N)N1 [Example 8B]
[2]
  EC50: 5.3 nM

## CCC1(CC)CC(=O)N([C@H](c2cccnc2)[C@H]2C[C@@H]2C(=O)N[C@H]2CCOc3ccccc32)C(=N)N1 [Example 9]
[2]
  EC50: 6.9 nM

## CCC1(CC)CC(=O)N([C@H](c2cccnc2)[C@H]2C[C@@H]2C(=O)N[C@@H]2c3ccccc3C[C@@H]2O)C(=N)N1 [Example 10]
[2]
  EC50: 27 nM

## CCC1(CC)CC(=O)N([C@H](c2cccnc2)[C@H]2C[C@@H]2C(=O)N[C@@H]2c3ccccc3OC(C)(C)[C@H]2O)C(=N)N1 [Example 11A]
[2]
  EC50: 4.1 nM

## CCC1(CC)CC(=O)N([C@H](c2cccnc2)[C@H]2C[C@@H]2C(=O)N[C@H]2c3ccccc3OC(C)(C)[C@H]2O)C(=N)N1 [Example 11B]
[2]
  EC50: 24 nM

## CCC1(CC)CC(=O)N([C@H](c2cccnc2)[C@H]2C[C@@H]2C(=O)N[C@H]2C[C@@H](C(F)(F)F)Oc3ccccc32)C(=N)N1 [Example 12]
[2]
  EC50: 0.9 nM

## CCC1(CC)CC(=O)N([C@H](CCOC)[C@H]2C[C@@H]2C(=O)N[C@@H]2c3ccccc3C[C@@H]2O)C(=N)N1 [Example 13]
[2]
  EC50: 24 nM

## CCC1(CC)CC(=O)N([C@H](CCOC)[C@H]2C[C@@H]2C(=O)N[C@H]2C[C@@H](C(F)(F)F)Oc3ccccc32)C(=N)N1 [Example 14]
[2]
  EC50: 0.9 nM
